Experiment [1] has as its target LeuT (Aquifex aeolicus, UniProt O67854). Kind of experiment: DEER spectroscopy. In kind it is binding. The settings on record: 200 mM NaCl; 4-fold molar excess of Leu over LeuT.
For experiment [2], the target named is LeuT (Aquifex aeolicus, UniProt O67854, A289M, form not given). Description: DEER spectroscopy. In kind it is binding. As to conditions: 200 mM NaCl; 4-fold molar excess of Leu over LeuT.

As to `CC(C)C[C@H](N)C(=O)O` [Leu], the “DEER spectroscopy (Q-band, 83 K), ligand-induced conformational change” value is “Subsequent Leu binding resets the closed EL4 conformation in the occluded conformation of the transporter” at LeuT [1]; “LeuT A289M with Na^+ and Leu bound in the vestibule has a destabilized bound structure” at LeuT [2].

Values taken from PMC4046646 (Molecular psychiatry, 2013).
